Measured values reported in US4717767A, “7-amino-3-(pyrazinylmethyl) or (pyridazinylmethyl)-cephalosporins” (Toyama Chemical Co., Ltd., priority 1982, dated 1988).
Converted amounts (≈) assume the structure as drawn. Counter-ions that a name gives are not always drawn. Like-named read-outs stand apart in the source and are kept apart here.

What was measured:
[1] = Acute toxicity, intravenous, mice; details: mouse, in vivo, mice (ICR, male, 20-24 g)
Excerpt: LD50 values of the following test compounds were 3 g/kg or more when the compounds were intravenously administered to mice (ICR, male, body weight 20-24 g).

Pro. vulgaris GN76 = assay: Antibacterial activity (MIC), Pro. vulgaris GN76; assay type: cell-based; details: Proteus vulgaris, cephalosporinase-producing strain, Heart Infusion agar, 37° C., 20 hours, 10^6 cells/ml
Excerpt: (§1) The amount of the inoculated bacteria was 10^4 cells/plate (10^6 cells/ml).

Pro. mirabilis T-111 = assay: Antibacterial activity (MIC), Pro. mirabilis T-111; assay type: cell-based; details: Proteus mirabilis
Excerpt: as §1

E. coli NIHJ = assay: Antibacterial activity (MIC), E. coli NIHJ; assay type: cell-based; details: Escherichia coli; Heart Infusion agar, 37° C., 20 hours, 10^4 cells/plate (10^6 cells/ml)
Excerpt: as §1

Kl. pneumoniae Y-4 = assay: Antibacterial activity (MIC), Kl. pneumoniae Y-4; assay type: cell-based; details: Klebsiella pneumoniae, Y4; penicillinase-producing strain; Heart Infusion agar, 37° C., 20 hours, 10^6 cells/ml
Excerpt: as §1

Kl. pneumoniae Y-50 = assay: Antibacterial activity (MIC), Kl. pneumoniae Y-50; assay type: cell-based; details: Klebsiella pneumoniae, Y50; Heart Infusion agar, 37° C., 20 hours, 10^6 cells/ml
Excerpt: as §1

E. coli TK-3 = assay: Antibacterial activity (MIC), E. coli TK-3; assay type: cell-based; details: Escherichia coli, TK3; penicillinase-producing strain; Heart Infusion agar, 37° C., 20 hours, 10^6 cells/ml; read-out: MIC
Excerpt: as §1

Ser. marcescens IID620 = assay: Antibacterial activity (MIC), Ser. marcescens IID620; assay type: cell-based; details: Serratia marcescens, IID620; Heart Infusion agar, 37° C., 20 hours, 10^6 cells/ml; read-out: MIC
Excerpt: as §1

Ps. aeruginosa GN918 = assay: Antibacterial activity (MIC), Ps. aeruginosa GN918; assay type: cell-based; details: Pseudomonas aeruginosa, cephalosporinase-producing strain, Heart Infusion agar, 37° C., 20 hours, 10^6 cells/ml
Excerpt: as §1

Pro. morganii T-216 = assay: Antibacterial activity (MIC), Pro. morganii T-216; assay type: cell-based; details: Morganella morganii, T216; Heart Infusion agar, 37° C., 20 hours, 10^6 cells/ml
Excerpt: as §1

Ser. marcescens W-134 = assay: Antibacterial activity (MIC), Ser. marcescens W-134; assay type: cell-based; details: Serratia marcescens
Excerpt: as §1

Cit. freundii N-7 = assay: Antibacterial activity (MIC), Cit. freundii N-7; assay type: cell-based; details: Citrobacter freundii, N7; Heart Infusion agar, 37° C., 20 hours, 10^6 cells/ml; read-out: MIC
Excerpt: as §1

Kl. pneumoniae Y-41 = assay: Antibacterial activity (MIC), Kl. pneumoniae Y-41; assay type: cell-based; details: Klebsiella pneumoniae, Y41; Heart Infusion agar, 37° C., 20 hours, 10^6 cells/ml
Excerpt: as §1

[2] = T111, Heart Infusion agar, 37° C., 20 hours, 10^6 cells/ml, read-out: MIC
[3] = W134, Heart Infusion agar, 37° C., 20 hours, 10^6 cells/ml, read-out: MIC

## CO/N=C(\C(=O)NC1C(=O)N2C(C(=O)O)=C(Cn3cc[nH]c(=O)c3=O)CSC12)c1csc(N)n1 (stereo not drawn)
[1]
  LD50: ≥ 3000 mg/kg

## CO/N=C(\C(=O)NC1C(=O)N2C(C(=O)O)=C(Cn3[nH]c(=O)ccc3=O)CSC12)c1csc(N)n1 (stereo not drawn)
[1]
  LD50: ≥ 3000 mg/kg

## CO/N=C(\C(=O)NC1C(=O)N2C(C(=O)O)=C(Cn3ccn(C)c(=O)c3=O)CSC12)c1csc(N)n1 (stereo not drawn)
[1]
  LD50: ≥ 3000 mg/kg

## CO/N=C(\C(=O)NC1C(=O)N2C(C(=O)O)=C(Cn3nc(C)ccc3=O)CSC12)c1csc(N)n1 (stereo not drawn)
[1]
  LD50: ≥ 3000 mg/kg

## CO/N=C(\C(=O)NC1C(=O)N2C(C(=O)O)=C(Cn3cc[nH]c(=O)c3=O)CSC12)c1csc(N)n1 (stereo not drawn) [A, trifluoroacetic acid salt of 7-[2-(2-aminothiazol-4-yl)-2-(syn)-methoxyiminoacetamido]-3-{[1-(2,3-dioxo-1,2,3,4-tetrahydropyrazinyl)]methyl}-Δ^3-cephem-4-carboxylic acid]
Pro. vulgaris GN76
  MIC: ≤ 0.1 µg/mL
Pro. mirabilis T-111; [2]
  MIC: ≤ 0.1 µg/mL
E. coli NIHJ
  MIC: ≤ 0.1 µg/mL
Kl. pneumoniae Y-4
  MIC: ≤ 0.1 µg/mL
Kl. pneumoniae Y-50
  MIC: ≤ 0.1 µg/mL
E. coli TK-3
  MIC: ≤ 0.1 µg/mL
Ser. marcescens IID620
  MIC: ≤ 0.1 µg/mL
Ps. aeruginosa GN918
  MIC: 12.5 µg/mL
Pro. morganii T-216
  MIC: ≤ 0.1 µg/mL
Ser. marcescens W-134; [3]
  MIC: ≤ 0.1 µg/mL
Cit. freundii N-7
  MIC: 0.39 µg/mL
Kl. pneumoniae Y-41
  MIC: ≤ 0.1 µg/mL

## CO/N=C(\C(=O)NC1C(=O)N2C(C(=O)O)=C(Cn3ccn(C)c(=O)c3=O)CSC12)c1csc(N)n1 (stereo not drawn) [B, trifluoroacetic acid salt of 7-[2-(2-aminothiazol-4yl)-2-(syn)-methoxyiminoacetamido]-3-{[1-(4-methyl-2,3-dioxo-1,2,3,4-tetrahydropyrazinyl)]methyl}-Δ^3-cephem-4-carboxylic acid]
Pro. vulgaris GN76
  MIC: 0.2 µg/mL
Pro. mirabilis T-111; [2]
  MIC: ≤ 0.1 µg/mL
E. coli NIHJ
  MIC: ≤ 0.1 µg/mL
Kl. pneumoniae Y-4
  MIC: 0.2 µg/mL
Kl. pneumoniae Y-50
  MIC: ≤ 0.1 µg/mL
E. coli TK-3
  MIC: ≤ 0.1 µg/mL
Ser. marcescens IID620
  MIC: ≤ 0.1 µg/mL
Ps. aeruginosa GN918
  MIC: 25 µg/mL
Pro. morganii T-216
  MIC: ≤ 0.1 µg/mL
Ser. marcescens W-134; [3]
  MIC: ≤ 0.1 µg/mL
Cit. freundii N-7
  MIC: 1.56 µg/mL
Kl. pneumoniae Y-41
  MIC: ≤ 0.1 µg/mL

## CCn1ccn(CC2=C(C(=O)O)N3C(=O)C(NC(=O)/C(=N\OC)c4csc(N)n4)C3SC2)c(=O)c1=O (stereo not drawn) [C, trifluoroacetic acid salt of 7-[2-(2-aminothiazol-4-yl)-2-(syn)-methoxyiminoacetamido]-3-{[1-(4-ethyl-2,3-dioxo-1,2,3,4-tetrahydropyrazinyl)]methyl}-Δ^3-cephem-4-carboxylic acid]
Pro. vulgaris GN76
  MIC: 1.56 µg/mL
Pro. mirabilis T-111; [2]
  MIC: ≤ 0.1 µg/mL
E. coli NIHJ
  MIC: ≤ 0.1 µg/mL
Kl. pneumoniae Y-4
  MIC: ≤ 0.1 µg/mL
Kl. pneumoniae Y-50
  MIC: ≤ 0.1 µg/mL
E. coli TK-3
  MIC: ≤ 0.1 µg/mL
Ser. marcescens IID620
  MIC: ≤ 0.1 µg/mL
Ps. aeruginosa GN918
  MIC: 6.25 µg/mL
Pro. morganii T-216
  MIC: ≤ 0.1 µg/mL
Ser. marcescens W-134; [3]
  MIC: ≤ 0.1 µg/mL
Cit. freundii N-7
  MIC: 0.78 µg/mL
Kl. pneumoniae Y-41
  MIC: ≤ 0.1 µg/mL

## CO/N=C(\C(=O)NC1C(=O)N2C(C(=O)O)=C(Cn3ccn(C(C)C)c(=O)c3=O)CSC12)c1csc(N)n1 (stereo not drawn) [D, trifluoroacetic acid salt of 7-[2-(2-aminothiazol-4-yl)-(syn)-methoxyiminoacetamido]-3-{[1-(4-isopropyl-2,3-dioxo-1,2,3,4-tetrahydropyrazinyl)]methyl}-Δ^3-cephem-4-carboxylic acid]
Pro. vulgaris GN76
  MIC: 0.39 µg/mL
Pro. mirabilis T-111; T111, 20 h
  MIC: 0.2 µg/mL
E. coli NIHJ
  MIC: ≤ 0.1 µg/mL
Kl. pneumoniae Y-4
  MIC: 0.39 µg/mL
Kl. pneumoniae Y-50
  MIC: ≤ 0.1 µg/mL
E. coli TK-3
  MIC: ≤ 0.1 µg/mL
Ser. marcescens IID620
  MIC: ≤ 0.1 µg/mL
Pro. morganii T-216
  MIC: ≤ 0.1 µg/mL
Ser. marcescens W-134; [3]
  MIC: ≤ 0.1 µg/mL
Cit. freundii N-7
  MIC: 1.56 µg/mL
Kl. pneumoniae Y-41
  MIC: ≤ 0.1 µg/mL

## CO/N=C(\C(=O)NC1C(=O)N2C(C(=O)O)=C(Cn3ccn(N(C)C)c(=O)c3=O)CSC12)c1csc(N)n1 (stereo not drawn) [E, trifluoroacetic acid salt of 7-[2-(2-aminothiazol-4-yl)-2-(syn)-methoxyiminoacetamido]-3-{[1-(4-dimethylamino-2,3-dioxo-1,2,3,4-tetrahydropyrazinyl)]-methyl}-Δ^3-cephem-4-carboxylic acid]
Pro. vulgaris GN76
  MIC: 1.56 µg/mL
Pro. mirabilis T-111; [2]
  MIC: ≤ 0.1 µg/mL
E. coli NIHJ
  MIC: ≤ 0.1 µg/mL
Kl. pneumoniae Y-4
  MIC: ≤ 0.1 µg/mL
Kl. pneumoniae Y-50
  MIC: ≤ 0.1 µg/mL
E. coli TK-3
  MIC: ≤ 0.1 µg/mL
Ser. marcescens IID620
  MIC: ≤ 0.1 µg/mL
Pro. morganii T-216
  MIC: ≤ 0.1 µg/mL
Ser. marcescens W-134; [3]
  MIC: ≤ 0.1 µg/mL
Cit. freundii N-7
  MIC: 0.78 µg/mL
Kl. pneumoniae Y-41
  MIC: ≤ 0.1 µg/mL

## Nc1nc(/C(=N/OCC(=O)O)C(=O)NC2C(=O)N3C(C(=O)O)=C(Cn4cc[nH]c(=O)c4=O)CSC23)cs1 (stereo not drawn) [F, 7-[2-(2-aminothiazol-4-yl)-2-(syn)-carboxymethoxyiminoacetamido]-3-{[1-(2,3-dioxo-1,2,3,4-tetrahydropyrazinyl)]methyl}-Δ^3-cephem-4-carboxylic acid]
Pro. vulgaris GN76
  MIC: ≤ 0.1 µg/mL
Pro. mirabilis T-111; [2]
  MIC: ≤ 0.1 µg/mL
E. coli NIHJ
  MIC: ≤ 0.1 µg/mL
Kl. pneumoniae Y-4
  MIC: 0.2 µg/mL (≈ 0.363 µM)
Kl. pneumoniae Y-50
  MIC: ≤ 0.1 µg/mL
E. coli TK-3
  MIC: ≤ 0.1 µg/mL
Ser. marcescens IID620
  MIC: ≤ 0.1 µg/mL
Pro. morganii T-216
  MIC: ≤ 0.1 µg/mL
Ser. marcescens W-134; W134, 20 h
  MIC: ≤ 0.1 µg/mL
Cit. freundii N-7
  MIC: 0.78 µg/mL (≈ 1.41 µM)
Kl. pneumoniae Y-41
  MIC: 0.39 µg/mL (≈ 0.707 µM)

## Cn1ccn(CC2=C(C(=O)O)N3C(=O)C(NC(=O)/C(=N\OCC(=O)O)c4csc(N)n4)C3SC2)c(=O)c1=O (stereo not drawn) [G]
Pro. vulgaris GN76
  MIC: ≤ 0.1 µg/mL
Pro. mirabilis T-111; [2]
  MIC: ≤ 0.1 µg/mL
E. coli NIHJ
  MIC: ≤ 0.1 µg/mL
Kl. pneumoniae Y-4
  MIC: 0.2 µg/mL (≈ 0.354 µM)
Kl. pneumoniae Y-50
  MIC: 0.2 µg/mL (≈ 0.354 µM)
E. coli TK-3
  MIC: 0.2 µg/mL (≈ 0.354 µM)
Ser. marcescens IID620
  MIC: ≤ 0.1 µg/mL
Pro. morganii T-216
  MIC: ≤ 0.1 µg/mL
Ser. marcescens W-134; [3]
  MIC: ≤ 0.1 µg/mL
Cit. freundii N-7
  MIC: 1.56 µg/mL (≈ 2.76 µM)
Kl. pneumoniae Y-41
  MIC: ≤ 0.1 µg/mL

## CCn1ccn(CC2=C(C(=O)O)N3C(=O)C(NC(=O)/C(=N\OCC(=O)O)c4csc(N)n4)C3SC2)c(=O)c1=O (stereo not drawn) [H, trifluoroacetic acid salt of 7-[2-(2-aminothiazol-4-yl)-2-(syn)-carboxymethoxyiminoacetamido]-3-{[1-(4-ethyl-2,3-dioxo-1,2,3,4-tetrahydropyrazinyl)]methyl}-Δ^3-cephem-4-carboxylic acid]
Pro. vulgaris GN76
  MIC: ≤ 0.1 µg/mL
Pro. mirabilis T-111; [2]
  MIC: ≤ 0.1 µg/mL
E. coli NIHJ
  MIC: ≤ 0.1 µg/mL
Kl. pneumoniae Y-4
  MIC: 0.2 µg/mL
Kl. pneumoniae Y-50
  MIC: 0.2 µg/mL
E. coli TK-3
  MIC: ≤ 0.1 µg/mL
Ser. marcescens IID620
  MIC: ≤ 0.1 µg/mL
Ps. aeruginosa GN918
  MIC: 6.25 µg/mL
Pro. morganii T-216
  MIC: ≤ 0.1 µg/mL
Ser. marcescens W-134; [3]
  MIC: ≤ 0.1 µg/mL
Cit. freundii N-7
  MIC: 1.56 µg/mL
Kl. pneumoniae Y-41
  MIC: ≤ 0.1 µg/mL

## CN(C)n1ccn(CC2=C(C(=O)O)N3C(=O)C(NC(=O)/C(=N\OCC(=O)O)c4csc(N)n4)C3SC2)c(=O)c1=O (stereo not drawn) [I, trifluoroacetic acid salt of 7-[2-(2-aminothiazol-4-yl)-2-(syn)-carboxymethoxyiminoacetamido]-3-{[1-(4-dimethylamino-2,3-dioxo-1,2,3,4-tetrahydropyrazinyl)]methyl}-Δ^3-cephem-4-carboxylic acid]
Pro. vulgaris GN76
  MIC: ≤ 0.1 µg/mL
Pro. mirabilis T-111; [2]
  MIC: ≤ 0.1 µg/mL
E. coli NIHJ
  MIC: ≤ 0.1 µg/mL
Kl. pneumoniae Y-4
  MIC: 0.39 µg/mL
Kl. pneumoniae Y-50
  MIC: 0.2 µg/mL
E. coli TK-3
  MIC: ≤ 0.1 µg/mL
Ser. marcescens IID620
  MIC: ≤ 0.1 µg/mL
Ps. aeruginosa GN918
  MIC: 12.5 µg/mL
Pro. morganii T-216
  MIC: ≤ 0.1 µg/mL
Ser. marcescens W-134; W134, 20 h
  MIC: ≤ 0.1 µg/mL
Cit. freundii N-7
  MIC: 1.56 µg/mL
Kl. pneumoniae Y-41
  MIC: 0.2 µg/mL
